27 molecules from ChEMBL document CHEMBL1268866, “Factor Xa inhibitors: next-generation antithrombotic agents” (J Med Chem, 2010) can be followed below.

The nature of data set [1]: Oral bioavailability in rat. Format: ADME, organism-based. As to conditions: in vivo.
Data set [2] can be described thus: in vivo. Conditions: dog.
Data set [3] in a line: in vivo. As to conditions: dog. The source holds these as a separate data set.
The nature of data set [4]: in vivo. Conditions: dog. This is another data set of the same source.
A short description of data set [5]: in vivo. Conditions: dog, po.
The nature of data set [6]: Half life in rat. The class given is ADME, organism-based. As to conditions: in vivo.
The species entered for the next data set is Canis familiaris. As to the kind of experiment: Plasma concentration in dog. The class given is ADME, organism-based, Canis lupus familiaris. As to conditions: in vivo.
The nature of data set [7]: Oral bioavailability in monkey. Conditions: in vivo.
The nature of data set [8]: Clearance in monkey. Format: ADME, organism-based, Macaca mulatta. Conditions: rhesus monkey, in vivo.
Data set [9] is described as follows: Volume of distribution at steady state in rat. Format: ADME, organism-based. Conditions: in vivo, read-out: Vdss.
Data set [10] is described as follows: (§1) Clearance in rat. Conditions: in vivo. Format: ADME, organism-based.
A short description of data set [11]: Volume of distribution at steady state in monkey. Format: ADME, organism-based, Macaca mulatta. As to conditions: rhesus monkey, in vivo; read-out: Vdss.
A short description of data set [12]: Half life in monkey. Format: ADME, organism-based, Macaca mulatta. As to conditions: rhesus monkey, in vivo.
Data set [13] can be described thus: Drug excretion in human urine. Conditions: read-out: Activity. Format: ADME, tissue-based.
A short description of data set [14]: Oral bioavailability in chimpanzee. As to conditions: in vivo. Format: ADME, organism-based, Pan troglodytes.
Data set [15] can be described thus: Half life in po dosed human. Format: ADME, organism-based. As to conditions: in vivo.
For the next data set, the species on record is Rattus norvegicus. The data set is described as §1. The class given is ADME, organism-based. As to conditions: in vivo.
Data set [16] in a line: Drug excretion in human feces. Format: ADME, tissue-based. As to conditions: faeces, read-out: Activity.
The nature of data set [17]: Volume of distribution in chimpanzee. Format: ADME, organism-based, Pan troglodytes. As to conditions: in vivo.
Data set [18] in a line: Half life in human. The class given is ADME, organism-based. Conditions: in vivo.
Data set [19] in a line: Clearance in human. As to conditions: in vivo. Format: ADME, organism-based.
A short description of data set [20]: Drug excretion in rat urine. Conditions: read-out: Activity. Format: ADME.
The nature of data set [21]: Drug excretion in rat feces. The class given is ADME, tissue-based. As to conditions: faeces, read-out: Activity.
Data set [22] in a line: Drug excretion in dog feces. Format: ADME, tissue-based, Canis lupus familiaris. As to conditions: faeces, read-out: Activity.
Data set [23] is described as follows: Drug excretion in dog urine. The class given is ADME, Canis lupus familiaris. Conditions: read-out: Activity.
Data set [24] can be described thus: Tmax in po dosed human. The class given is ADME, organism-based. As to conditions: in vivo.

Broadly, the bioavailability is dose-corrected exposure relative to a reference, in per cent. As to `CCCCOC(=O)COc1cc(-c2ccccc2S(C)(=O)=O)ccc1CCNS(=O)(=O)c1cc(C(=N)NO)ccc1O`, the bioavailability in data set [1] was 15%.
In turn, `CO[C@@H]1C[C@H](C(=O)Nc2ccc(-c3ccccc3S(C)(=O)=O)cc2F)N(C(=O)Nc2ccc(Cl)cc2)C1` registered a bioavailability in data set [1] of 28%.
With `CS(=O)(=O)c1ccccc1-c1ccc(NC(=O)[C@H]2C[C@@H](O)CN2C(=O)Nc2ccc(Cl)cc2)c(F)c1`, the bioavailability in data set [1] was determined as 17%.
By half-life is commonly meant the time needed for the level to fall by half in the phase considered. By clearance is commonly meant a measure of how efficiently the substance is removed, as volume per time. As to `CN(C)Cc1nccn1-c1ccc(NC(=O)c2cc(C(F)(F)F)nn2-c2ccc3onc(N)c3c2)cc1`, the half-life in “in vivo [2]” is 1.6 h. In the data set “in vivo [3]”, this molecule had a clearance of 41.7 mL/min/kg. Further, the Vd in the data set “in vivo [4]” is 4.5 L/kg. Further, the bioavailability in the data set “in vivo [5]” came to 16%.
As to `CN(C)Cc1ccccc1-c1ccc(C(=O)Nc2ccc(Cl)cc2C(=O)Nc2ccc(Cl)cn2)cc1`, the bioavailability in data set [1] is 100%.
For `CS(=O)(=O)c1cc(F)ccc1N1CCN(C(=O)[C@H](NC(=O)c2ccc3ccnc(N)c3c2)c2ccccc2)CC1`, the bioavailability in [1] was found to be 27%.
In turn, `NCc1ccccc1-n1nc(C(F)(F)F)cc1C(=O)Nc1ccc(-c2ccccc2S(N)(=O)=O)cc1F` registered a bioavailability in “in vivo [5]” of 100%.
Turning to `Cc1cc(C(=O)Nc2ccc(-n3ccnc3CN(C)C)cc2F)n(-c2ccc3cc(Cl)ccc3c2)n1`, the bioavailability in data set [1] amounted to 35%. This molecule also gave a half-life in [6] of 7.2 h.
On to `CN(C)C(=N)c1ccc(NC(=O)c2cc(C(F)(F)F)nn2-c2cc3ccccc3cc2F)c(F)c1`, for which the bioavailability in data set [1] is 47%.
`Nc1nccc2ccc(CN3CC[C@H](NS(=O)(=O)c4cc5ncccc5s4)C3=O)cc12`: the bioavailability in “in vivo [5]” is 33%. Further, the concentration in the data set listed under Canis familiaris came out at 2700 nM.
Molecule `O=C1CN(S(=O)(=O)c2cc3ccc(Cl)cc3s2)CCN1Cc1cc2c[nH]ccc-2n1` showed a half-life in “in vivo [2]” of 0.6 h. This molecule yielded a bioavailability in the data set “in vivo [5]” of 46%.
On to `COC[C@@H](NC(=O)c1ccc(Cl)s1)C(=O)Nc1ccc(N2CCOCC2=O)c(C)c1`, for which the bioavailability in data set [7] turned out to be 80%; in data set [1] it was 60%; in the data set “in vivo [5]” it was 60%. For the same molecule, in data set [8], the clearance was 4.17 mL/min/kg.
Molecule `CN(C)Cc1ccc(C(=O)Nc2ccc(Cl)cc2C(=O)Nc2ccc(Cl)cn2)cc1` gave a bioavailability in data set [1] of 100%. In data set [9], the Vd came to 33 L/kg.
For `CN(C)Cc1nccn1-c1ccc(N2CC[C@H](NS(=O)(=O)/C=C/c3ccc(Cl)s3)C2=O)c(F)c1`, the bioavailability in data set [1] turned out to be 52%. The Vd in data set [9] was 0.6 L/kg. Moreover, the clearance in [10] came to 13 mL/min/kg. The same molecule gave a half-life in [6] of 1 h.
In the case of `O=C1CN(S(=O)(=O)/C=C/c2ccc(Cl)s2)CCN1Cc1cc2c[nH]ccc-2n1`, the half-life in “in vivo [2]” came out at 0.867 h. The molecule further displayed a bioavailability in the data set “in vivo [5]” of 97%.
Consider `O=C(Nc1ccc(-n2ccccc2=O)cn1)[C@H]1C[C@](O)(c2ccc(F)cc2F)CN1C(=O)Nc1ccc(Cl)cc1`, for which the half-life in “in vivo [2]” was 12.6 h.
For the molecule `CN1CCc2nc(C(=O)N[C@@H]3C[C@@H](C(=O)N(C)C)CC[C@@H]3NC(=O)c3cc4cc(Cl)ccc4[nH]3)sc2C1`, the Vd in [11] was 1.49 L/kg. Also, in [12], the half-life was 1.5 h. Further, the clearance in [8] came out at 12.4 mL/min/kg.
In data set [7], `Cc1ncc2n1C(=O)N(C1CCN(C(=O)CCS(=O)(=O)c3ccc4cc(Cl)ccc4c3)CC1)C2` yielded a bioavailability of 46%.
Regarding `Cc1cc2cc(N=C(NC#N)N[C@H]3CCCCN(CC(=O)N4CCCC4)C3=O)ccc2o1`, the bioavailability in [1] turned out to be 50%.
For `COc1ccc(-n2nc(C(N)=O)c3c2C(=O)N(c2ccc(N4CCCCC4=O)cc2)CC3)cc1` [APIXABAN], the dose excreted in data set [13] was 25%; in data set [16], 47%. The Vd turned out to be 0.31 L/kg in data set [9], 0.2 L/kg in “in vivo [4]” and 0.17 L/kg in data set [17]. Further, the bioavailability in [14] was 51%; in “in vivo [5]”, greater than 50%. The figures for the clearance in the data set “in vivo [3]” and in the data set listed under Rattus norvegicus were 0.333 mL/min/kg and 4.33 mL/min/kg, respectively. Moreover, in data set [15], the half-life was 8 h.
Take `CC(=N)N1CC[C@H](Oc2ccc([C@H](Cc3ccc4ccc(C(=N)N)cc4c3)C(=O)O)cc2)C1` [DX-9065A]: the half-life in data set [18] was greater than 20 h. For the same molecule, the clearance in data set [19] is 120 mL/min.
`CN1CCc2nc(C(=O)N[C@@H]3C[C@@H](C(=O)N(C)C)CC[C@@H]3NC(=O)C(=O)Nc3ccc(Cl)cn3)sc2C1` [EDOXABAN] showed a bioavailability in [7] of 50%.
As for `CO[C@@H]1C[C@H](C(=O)Nc2ccc(-n3ccccc3=O)cc2F)N(C(=O)Nc2ccc(Cl)cc2)C1` [ERIBAXABAN], the bioavailability in data set [1] came to 82%; in “in vivo [5]”, 41%. Also, in the data set “in vivo [3]”, the clearance was 2.5 mL/min/kg. This molecule yielded a Vd in the data set “in vivo [4]” of 0.87 L/kg.
The molecule `O=C([C@H](O)CS(=O)(=O)c1ccc2cc(Cl)ccc2c1)N1CCC(N2CCCNC2=O)CC1` [LETAXABAN] gave a bioavailability in [7] of 52.5%. The Vd in data set [11] was 0.579 L/kg. Further, the clearance in [8] was 11.8 mL/min/kg.
As for `CN1CCC(N2CCN(C(=O)[C@H](NC(=O)c3ccc4cc[nH]c4c3)c3ccccc3)CC2)CC1` [LY-517717], the bioavailability (in data set [1]; in the data set “in vivo [5]”) was 25% each time. Moreover, the half-life (in the data set “in vivo [2]”; in [6]) was 7 h throughout.
As usually defined, the Tmax is the time at which the peak concentration occurs. For the molecule `O=C(NC[C@H]1CN(c2ccc(N3CCOCC3=O)cc2)C(=O)O1)c1ccc(Cl)s1` [RIVAROXABAN], the dose excreted in data set [20] came to 25%; in data set [21], 67%; in [22], 43%; in data set [23], 52%. In addition, the bioavailability in data set [1] was 57%; in “in vivo [5]” it was 60%. In addition, the Vd in [9] was determined as 0.3 L/kg; in the data set “in vivo [4]”, 0.4 L/kg. The half-life in “in vivo [2]” was 0.9 h; in data set [6], 1.2 h. In “in vivo [3]”, this molecule showed a clearance of 5 mL/min/kg. In addition, the Tmax in data set [24] was found to be 1.3 h.
In data set [7], `CC(=N)N1CCC(Oc2ccc(N(Cc3ccc4ccc(C(=N)N)cc4c3)S(=O)(=O)CC(=O)O)cc2)CC1` [YM-60828] registered a bioavailability of 20%.
